Read-outs that look alike come from different tables or passages of the source. Values belong to the molecule of their own block, whether it stands above or below them.
Assays:
xanthine oxidase [1] = target: T1, xanthine oxidase (Bos taurus, UniProt P80457); assay: In vitro xanthine oxidase inhibitory assay; type: biochemical, bovine
xanthine oxidase [2] = target: T1, xanthine oxidase; assay: Fixed-ratio combination analysis on XO; details: for DRI: in techtochrysin + allopurinol combination; for EC90: read-out: EC90 dose
XO = details: cited from earlier work; for IC50: XO inhibition
[3] = Dm (median-effect dose), antilog of x-intercept of median-effect plot, CompuSyn
[4] = EC50 dose, single agent, dose for 50% inhibition of XO activity
[5] = single agent, dose for 10% inhibition of XO activity
[6] = single agent, dose for 30% inhibition of XO activity
[7] = single agent, dose for 70% inhibition of XO activity

T1 sequence (P80457 whole entry): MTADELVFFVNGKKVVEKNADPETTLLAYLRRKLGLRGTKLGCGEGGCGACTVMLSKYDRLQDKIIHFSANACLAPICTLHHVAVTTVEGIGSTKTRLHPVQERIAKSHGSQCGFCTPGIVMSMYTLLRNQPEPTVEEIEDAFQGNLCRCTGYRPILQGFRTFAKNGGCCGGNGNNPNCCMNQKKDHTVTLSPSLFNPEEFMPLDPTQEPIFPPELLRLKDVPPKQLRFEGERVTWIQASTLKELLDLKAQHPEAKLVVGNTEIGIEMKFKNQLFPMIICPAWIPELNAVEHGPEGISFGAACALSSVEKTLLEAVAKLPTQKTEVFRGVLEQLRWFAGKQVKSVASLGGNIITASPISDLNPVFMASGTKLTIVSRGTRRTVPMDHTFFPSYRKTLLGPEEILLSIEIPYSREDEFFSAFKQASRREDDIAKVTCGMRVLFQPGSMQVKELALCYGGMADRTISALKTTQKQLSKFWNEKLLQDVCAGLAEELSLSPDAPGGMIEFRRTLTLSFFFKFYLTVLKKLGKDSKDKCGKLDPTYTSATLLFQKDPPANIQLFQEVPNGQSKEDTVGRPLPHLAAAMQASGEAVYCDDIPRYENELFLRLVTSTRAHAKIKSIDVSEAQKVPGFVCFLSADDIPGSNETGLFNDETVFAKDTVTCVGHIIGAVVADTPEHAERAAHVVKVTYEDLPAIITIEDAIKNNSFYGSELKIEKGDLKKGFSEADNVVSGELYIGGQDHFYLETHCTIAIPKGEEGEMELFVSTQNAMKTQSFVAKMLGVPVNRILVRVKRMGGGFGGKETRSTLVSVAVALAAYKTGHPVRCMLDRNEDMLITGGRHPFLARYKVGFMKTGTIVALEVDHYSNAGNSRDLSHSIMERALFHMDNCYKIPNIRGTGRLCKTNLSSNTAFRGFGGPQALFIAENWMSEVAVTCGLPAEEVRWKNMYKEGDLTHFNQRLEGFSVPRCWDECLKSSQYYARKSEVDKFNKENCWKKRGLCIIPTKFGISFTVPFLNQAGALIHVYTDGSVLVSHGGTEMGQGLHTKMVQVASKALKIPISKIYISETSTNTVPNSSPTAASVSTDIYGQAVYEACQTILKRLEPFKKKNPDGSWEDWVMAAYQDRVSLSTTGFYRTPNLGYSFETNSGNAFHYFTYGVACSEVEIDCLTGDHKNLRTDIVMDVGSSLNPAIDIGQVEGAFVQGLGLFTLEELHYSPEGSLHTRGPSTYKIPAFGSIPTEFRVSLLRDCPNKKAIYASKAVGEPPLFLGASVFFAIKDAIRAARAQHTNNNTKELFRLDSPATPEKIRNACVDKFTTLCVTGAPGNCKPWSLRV

- IC50 (xanthine oxidase [1]): 84 nM
- fold enhancement in XO inhibitory activity compared with allopurinol (xanthine oxidase [1]; from IC50 values of Table 5): 10 folds
- m (slope of the median-effect plot) (xanthine oxidase [2]; CompuSyn): 1.73
- EC50 (xanthine oxidase [2]; [3]): 81 nM
- EC50 (xanthine oxidase [2]; [4]): 84 nM
- Dose of each drug alone required for the same effect (xanthine oxidase [2]; Fa 19%, techtochrysin/allopurinol analysis): 0.031 µM
- Dose of each drug alone required for the same effect (xanthine oxidase [2]; Fa 35%, techtochrysin/allopurinol analysis): 0.064 µM
- Dose of each drug alone required for the same effect (xanthine oxidase [2]; Fa 53%, techtochrysin/febuxostat analysis): 0.11 µM
- Dose of each drug alone required for the same effect (xanthine oxidase [2]; Fa 57%, techtochrysin/allopurinol analysis): 0.15 µM
- Dose of each drug alone required for the same effect (xanthine oxidase [2]; Fa 69%, techtochrysin/febuxostat analysis): 0.20 µM
- Dose of each drug alone required for the same effect (xanthine oxidase [2]; Fa 75%, techtochrysin/febuxostat analysis): 0.25 µM
- Dose of each drug alone required for the same effect (xanthine oxidase [2]; Fa 84%, techtochrysin/febuxostat analysis): 0.39 µM
- Dose of each drug alone required for the same effect (xanthine oxidase [2]; Fa 91%, techtochrysin/allopurinol analysis): 0.98 µM
- Dose of each drug alone required for the same effect (xanthine oxidase [2]; Fa 94%, techtochrysin/febuxostat analysis): 0.96 µM
- Dose of each drug alone required for the same effect (xanthine oxidase [2]; Fa 97%, techtochrysin/allopurinol analysis): 3.19 µM
- DRI (xanthine oxidase [2]; Fa […]% (70% effect level doses)): 3.51 fold
- DRI (xanthine oxidase [2]; Fa […]% (90% effect level doses)): 3.63 fold
- EC90 (xanthine oxidase [2]): 880 nM
- EC10 dose (xanthine oxidase [2]; [5]): 24 nM
- EC30 dose (xanthine oxidase [2]; [6]): 46 nM
- EC70 dose (xanthine oxidase [2]; [7]): 280 nM
Compound: COc1cc(O)c2c(=O)cc(-c3ccccc3)oc2c1 [Techtochrysin, techtochrysin]

- EC10 dose (xanthine oxidase [2]): 5 nM
- EC30 dose (xanthine oxidase [2]): 15 nM
- EC70 dose (xanthine oxidase [2]): 40 nM
- m (slope of the median-effect plot) (xanthine oxidase [2]): 1.57
- EC90 (xanthine oxidase [2]): 120 nM
Compound: Cc1nc(-c2ccc(OCC(C)C)c(C#N)c2)sc1C(=O)O [Febuxostat, febuxostat, reference compound]

- IC50 (xanthine oxidase [1]): 970 nM
- m (slope of the median-effect plot) (xanthine oxidase [2]; CompuSyn): 1.78
- EC50 (xanthine oxidase [2]; [3]): 1040 nM
- EC50 (xanthine oxidase [2]; [4]): 970 nM
- Dose of each drug alone required for the same effect (xanthine oxidase [2]; Fa 16%, rosmarinic acid/allopurinol analysis): 0.32 µM
- Dose of each drug alone required for the same effect (xanthine oxidase [2]; Fa 34%, rosmarinic acid/allopurinol analysis): 0.72 µM
- Dose of each drug alone required for the same effect (xanthine oxidase [2]; Fa 42%, rosmarinic acid/febuxostat analysis): 0.87 µM
- Dose of each drug alone required for the same effect (xanthine oxidase [2]; Fa 66%, rosmarinic acid/febuxostat analysis): 1.78 µM
- Dose of each drug alone required for the same effect (xanthine oxidase [2]; Fa 69%, rosmarinic acid/allopurinol analysis): 2.06 µM
- Dose of each drug alone required for the same effect (xanthine oxidase [2]; Fa 74%, rosmarinic acid/febuxostat analysis): 2.35 µM
- Dose of each drug alone required for the same effect (xanthine oxidase [2]; Fa 82%, rosmarinic acid/febuxostat analysis): 3.42 µM
- Dose of each drug alone required for the same effect (xanthine oxidase [2]; Fa 92%, rosmarinic acid/febuxostat analysis): 6.21 µM
- Dose of each drug alone required for the same effect (xanthine oxidase [2]; Fa 93%, rosmarinic acid/allopurinol analysis): 8.35 µM
- Dose of each drug alone required for the same effect (xanthine oxidase [2]; Fa 98%, rosmarinic acid/allopurinol analysis): 21.32 µM
- EC90 (xanthine oxidase [2]): 5220 nM
- EC10 dose (xanthine oxidase [2]; [5]): 260 nM
- EC30 dose (xanthine oxidase [2]; [6]): 480 nM
- EC70 dose (xanthine oxidase [2]; [7]): 2440 nM
Compound: O=C(/C=C/c1ccc(O)c(O)c1)O[C@H](Cc1ccc(O)c(O)c1)C(=O)O [Rosmarinic acid, rosmarinic acid]

- IC50 (xanthine oxidase [1]): 1680 nM
Compound: O=c1cc(-c2ccc(O)c(O)c2)oc2cc(O)cc(O)c12 [Luteolin, luteolin]
- IC50 (XO): 8210 nM
- type of XO inhibition (XO): competitive

More lines, now with the values behind:

Compound: O=c1c(O)c(-c2ccccc2)oc2cc(O)cc(O)c12 [Galangin, galangin]
- type of XO inhibition (XO): competitive

Compound: O=c1c(O)c(-c2ccc(O)c(O)c2)oc2cc(O)cc(O)c12 [Quercetin, quercetin]
- IC50 (XO): 2920 nM
- type of XO inhibition (XO): mixed-type

Compound: O=c1cc(-c2ccc(O)cc2)oc2cc(O)cc(O)c12 [Apigenin, apigenin]
- IC50 (XO): 6330 nM
- type of XO inhibition (XO): competitive

Compound: Oc1ncnc2[nH]ncc12 [Allopurinol, allopurinol, reference compound]
- IC50 (XO): 13200 nM
- EC10 dose (xanthine oxidase [2]): 180 nM
- EC30 dose (xanthine oxidase [2]): 420 nM
- EC70 dose (xanthine oxidase [2]): 1840 nM
- m (slope of the median-effect plot) (xanthine oxidase [2]): 1.44
- EC90 (xanthine oxidase [2]): 4050 nM

Compound: O=C1c2c(O)cc(O)cc2O[C@H](c2ccccc2)[C@H]1O [Pinobanksin, pinobanksin]
- type of XO inhibition (XO): competitive
